In PubChem BioAssay AID330 (DTP/NCI, 2004):
Where “and” joins values, the source holds several entries; their conditions need not be identical. Equal entries are not always repeated. Toxic doses and inconclusive results are not listed. Peptide text beside a SMILES is read from it. * marks the point of attachment. Trt = c1ccc(C(c2ccccc2)(c2ccccc2)*)cc1; Benzhydryl = c1ccc(C(c2ccccc2)*)cc1; Cbz = O=C(OCc1ccccc1)*

Tested on: P388 leukemia ip, CD2F1 mice, survival T/C
Experiment: NCI In Vivo Anticancer Drug Screen. Data for tumor model P388 Leukemia (intraperitoneal) in CD2F1 (CDF1) mice
Details: endpoint: median survival time, higher = longer survival
Experimental: The antitumor activity of compounds was measured in mice bearing transplantable tumors. Survival or tumor size were measured and the results are expressed as the measurement made in the treated group (T) divided by the measurement made in the vehicle treated control group (C). The tumor model used in this assay is P388 Leukemia (intraperitoneal) in CD2F1 (CDF1) mice

[1] = dose: 50.0 mg/kg/injection, schedule: Q01DX009 (ip), vehicle: saline with Tween-80
[2] = dose: 100.0 mg/kg/injection, schedule: Q01DX009 (ip), vehicle: saline with Tween-80
[3] = dose: 200.0 mg/kg/injection, schedule: Q01DX009 (ip), vehicle: saline with Tween-80
[4] = dose: 50.0 mg/kg/injection, schedule: Q01DX005 (ip), vehicle: Klucel (hydroxypropylcellulose) (HPC)
[5] = dose: 100.0 mg/kg/injection, schedule: Q01DX005 (ip), vehicle: Klucel (hydroxypropylcellulose) (HPC)
[6] = dose: 200.0 mg/kg/injection, schedule: Q01DX005 (ip), vehicle: Klucel (hydroxypropylcellulose) (HPC)
[7] = dose: 12.5 mg/kg/injection, schedule: Q01DX009 (ip), vehicle: saline with Tween-80
[8] = dose: 25.0 mg/kg/injection, schedule: Q01DX009 (ip), vehicle: saline with Tween-80
[9] = dose: 60.0 mg/kg/injection, schedule: Q01DX005 (ip), vehicle: saline with Tween-80
[10] = dose: 12.5 mg/kg/injection, schedule: Q01DX009 (ip), vehicle: other
[11] = dose: 25.0 mg/kg/injection, schedule: Q01DX009 (ip), vehicle: other
[12] = dose: 200.0 mg/kg/injection, schedule: Q01DX009 (ip), vehicle: other
[13] = dose: 100.0 mg/kg/injection, schedule: Q04DX003 (ip), vehicle: Klucel (hydroxypropylcellulose) (HPC)
[14] = dose: 200.0 mg/kg/injection, schedule: Q04DX003 (ip), vehicle: Klucel (hydroxypropylcellulose) (HPC)
[15] = dose: 400.0 mg/kg/injection, schedule: Q04DX003 (ip), vehicle: Klucel (hydroxypropylcellulose) (HPC)

SMILES: CCCCCCC(=O)/C=C/c1ccc([N+](=O)[O-])cc1
- T/C [1]: 99 % of control
- T/C [2]: 99 % of control
- T/C [3]: 92 % of control

SMILES: COc1cc(C2c3cc4c(cc3CC3COC(=O)N32)OCO4)cc(OC)c1OC (configuration not stated)
- T/C (dose: 3.75 mg/kg/injection, schedule: Q01DX005 (ip), vehicle: Klucel (hydroxypropylcellulose) (HPC)): 98 % of control and 92 % of control
- T/C (dose: 7.5 mg/kg/injection, schedule: Q01DX005 (ip), vehicle: Klucel (hydroxypropylcellulose) (HPC)): 88 % of control and 91 % of control and 92 % of control
- T/C (dose: 15.0 mg/kg/injection, schedule: Q01DX005 (ip), vehicle: Klucel (hydroxypropylcellulose) (HPC)): 92 % of control (2×) and 97 % of control

SMILES: O=C1CC(=O)N(CN2C(=O)CC(=O)NC2=S)C(=S)N1
- T/C [4]: 100 % of control
- T/C [5]: 103 % of control
- T/C [6]: 105 % of control

SMILES: COc1ccc(OC)c(C(=O)C[n+]2ccccc2)c1
- T/C (dose: 12.5 mg/kg/injection, schedule: Q04DX003 (ip), vehicle: saline): 95 % of control
- T/C (dose: 25.0 mg/kg/injection, schedule: Q04DX003 (ip), vehicle: saline): 90 % of control
- T/C (dose: 50.0 mg/kg/injection, schedule: Q04DX003 (ip), vehicle: saline): 100 % of control

SMILES: CC(C)CN=C(N)Nc1cccc(NC(=O)Nc2ccc(Cl)cc2)c1
- T/C [7]: 92 % of control
- T/C [8]: 86 % of control
- T/C [1]: 109 % of control and 91 % of control

SMILES: COC(=O)C(Cc1ccccc1)NC(=O)C(Cc1ccccc1)NC(=O)CNC(=O)C(CSC(c1ccccc1)c1ccccc1)NC(=O)C(CSC(c1ccccc1)(c1ccccc1)c1ccccc1)NC(=O)OCc1ccccc1 (configuration not stated) (Cbz-C(Trt)C(Benzhydryl)GFF-OMe; configuration not given here)
- T/C (dose: 100.0 mg/kg/injection, schedule: Q04DX002 (ip), vehicle: Klucel (hydroxypropylcellulose) (HPC)): 88 % of control
- T/C (dose: 200.0 mg/kg/injection, schedule: Q04DX002 (ip), vehicle: Klucel (hydroxypropylcellulose) (HPC)): 98 % of control
- T/C (dose: 400.0 mg/kg/injection, schedule: Q04DX002 (ip), vehicle: Klucel (hydroxypropylcellulose) (HPC)): 98 % of control

SMILES: CC1=C(C(=O)NCc2ccccc2)C(c2cccc([N+](=O)[O-])c2)C(C(=O)NCc2ccccc2)=C(C)N1
- T/C (dose: 15.0 mg/kg/injection, schedule: Q01DX005 (ip), vehicle: saline with Tween-80): 107 % of control
- T/C (dose: 30.0 mg/kg/injection, schedule: Q01DX005 (ip), vehicle: saline with Tween-80): 90 % of control
- T/C [9]: 87 % of control

SMILES: CCCCc1nc2cc(CN3CCN(C(c4ccccc4)c4ccccc4)CC3)ccc2n1CC
- T/C (dose: 6.25 mg/kg/injection, schedule: Q01DX009 (ip), vehicle: saline with Tween-80): 95 % of control
- T/C [7]: 101 % of control
- T/C [8]: 100 % of control

SMILES: S=C(S)N1CCCCC1
- T/C (dose: 3.13 mg/kg/injection, schedule: Q01DX009 (ip), vehicle: saline): 88 % of control
- T/C (dose: 6.25 mg/kg/injection, schedule: Q01DX009 (ip), vehicle: saline): 91 % of control
- T/C (dose: 12.5 mg/kg/injection, schedule: Q01DX009 (ip), vehicle: saline): 86 % of control
- T/C [8]: 91 % of control
- T/C (dose: 25.0 mg/kg/injection, schedule: Q01DX009 (ip), vehicle: saline): 86 % of control

SMILES: CC1=NCCCN(CCN(C)C)CCCN=C(C)C2CCCC1[N-]2.[Ni+2].[O-][Cl+3]([O-])([O-])O
- T/C (dose: 6.25 mg/kg/injection, schedule: Q01DX001 (ip), vehicle: saline): 100 % of control
- T/C (dose: 12.5 mg/kg/injection, schedule: Q01DX001 (ip), vehicle: saline): 100 % of control
- T/C (dose: 25.0 mg/kg/injection, schedule: Q01DX001 (ip), vehicle: saline): 100 % of control and 102 % of control

SMILES: CCOC(=O)C(Cc1ccccc1)NC(=O)N(CCCl)CCCl (configuration not stated)
- T/C (dose: 66.0 mg/kg/injection, schedule: Q04DX003 (ip), vehicle: saline with Tween-80): 109 % of control
- T/C [2]: 109 % of control
- T/C (dose: 150.0 mg/kg/injection, schedule: Q04DX003 (ip), vehicle: saline with Tween-80): 113 % of control
- T/C [3]: 122 % of control

SMILES: CSc1nc(C)c(C(=O)CCN2CCOCC2)s1
- T/C (dose: 60.0 mg/kg/injection, schedule: Q01DX005 (ip), vehicle: saline): 117 % of control
- T/C (dose: 120.0 mg/kg/injection, schedule: Q01DX005 (ip), vehicle: saline): 105 % of control

SMILES: Cc1ccc2nc(-c3cccc(Cl)c3)oc(=O)c2c1
- T/C (dose: 50.0 mg/kg/injection, schedule: Q01DX009 (ip), vehicle: Klucel (hydroxypropylcellulose) (HPC)): 110 % of control
- T/C (dose: 100.0 mg/kg/injection, schedule: Q01DX009 (ip), vehicle: Klucel (hydroxypropylcellulose) (HPC)): 102 % of control
- T/C (dose: 200.0 mg/kg/injection, schedule: Q01DX009 (ip), vehicle: Klucel (hydroxypropylcellulose) (HPC)): 92 % of control

SMILES: NC(=S)N/N=C\c1ncccc1OCc1cccc(N)c1
- T/C (dose: 12.5 mg/kg/injection, schedule: Q01DX009 (ip), vehicle: distilled water + Tween-80): 122 % of control
- T/C [10]: 111 % of control
- T/C [11]: 120 % of control and 124 % of control
- T/C (dose: 200.0 mg/kg/injection, schedule: Q01DX009 (ip), vehicle: distilled water + Tween-80): 116 % of control
- T/C [12]: 152 % of control
- T/C (dose: 400.0 mg/kg/injection, schedule: Q01DX009 (ip), vehicle: distilled water + Tween-80): 100 % of control

SMILES: CNC(=O)c1ccccc1CNC(=S)Nc1cccc(C)c1
- T/C [4]: 98 % of control
- T/C [5]: 98 % of control
- T/C [6]: 95 % of control

SMILES: COc1cc(Br)cc(C=O)c1OC
- T/C [10]: 98 % of control
- T/C [11]: 98 % of control
- T/C (dose: 50.0 mg/kg/injection, schedule: Q01DX009 (ip), vehicle: other): 99 % of control
- T/C (dose: 100.0 mg/kg/injection, schedule: Q01DX009 (ip), vehicle: other): 98 % of control
- T/C [12]: 102 % of control
- T/C (dose: 400.0 mg/kg/injection, schedule: Q01DX009 (ip), vehicle: other): 114 % of control

SMILES: OCC1OC(SC2OC(CO)C(O)C(O)C2O)C(O)C(O)C1O (configuration not stated)
- T/C (dose: 100.0 mg/kg/injection, schedule: Q01DX001 (ip), vehicle: water): 114 % of control
- T/C (dose: 200.0 mg/kg/injection, schedule: Q01DX001 (ip), vehicle: water): 94 % of control
- T/C (dose: 400.0 mg/kg/injection, schedule: Q01DX001 (ip), vehicle: water): 100 % of control

SMILES: CC(=O)Nc1ccc2c(c1)C(=O)c1ccccc1-2
- T/C [13]: 100 % of control
- T/C [14]: 110 % of control
- T/C [15]: 110 % of control

SMILES: Nc1ncnc2c1ccn2C1OC(CSCCC(N)C(=O)O)C(O)C1O (configuration not stated)
- T/C (dose: 0.5 mg/kg/injection, schedule: Q01DX009 (ip), vehicle: water): 98 % of control
- T/C (dose: 1.0 mg/kg/injection, schedule: Q01DX009 (ip), vehicle: water): 102 % of control
- T/C (dose: 2.0 mg/kg/injection, schedule: Q01DX009 (ip), vehicle: water): 97 % of control
- T/C (dose: 4.0 mg/kg/injection, schedule: Q01DX009 (ip), vehicle: water): 93 % of control
- T/C (dose: 8.0 mg/kg/injection, schedule: Q01DX009 (ip), vehicle: water): 104 % of control

SMILES: COc1cc(C2C3=C(CCCC3=O)Oc3cc4c(cc32)OCO4)cc(OC)c1OC (configuration not stated)
- T/C [9]: 91 % of control
- T/C (dose: 120.0 mg/kg/injection, schedule: Q01DX005 (ip), vehicle: saline with Tween-80): 90 % of control
- T/C (dose: 240.0 mg/kg/injection, schedule: Q01DX005 (ip), vehicle: saline with Tween-80): 98 % of control

SMILES: O=C(Nc1ccc(Cl)c(Cl)c1)N1CC=CC1
- T/C [13]: 101 % of control
- T/C [14]: 96 % of control
- T/C [15]: 94 % of control

SMILES: Cc1c(Cl)cccc1NC(=O)/C=C/C(=O)O
- T/C (dose: 100.0 mg/kg/injection, schedule: Q04DX003 (ip), vehicle: saline with Tween-80): 90 % of control
- T/C (dose: 200.0 mg/kg/injection, schedule: Q04DX003 (ip), vehicle: saline with Tween-80): 95 % of control
- T/C (dose: 400.0 mg/kg/injection, schedule: Q04DX003 (ip), vehicle: saline with Tween-80): 90 % of control

SMILES: O=S(=O)(C1=C[C@H](O)C[C@@H]1O)c1ccccc1
- T/C (dose: 60.0 mg/kg/injection, schedule: Q01DX005 (ip), vehicle: Klucel (hydroxypropylcellulose) (HPC)): 98 % of control
- T/C (dose: 120.0 mg/kg/injection, schedule: Q01DX005 (ip), vehicle: Klucel (hydroxypropylcellulose) (HPC)): 107 % of control
- T/C (dose: 240.0 mg/kg/injection, schedule: Q01DX005 (ip), vehicle: Klucel (hydroxypropylcellulose) (HPC)): 100 % of control

SMILES: CCCCn1ccc(=O)[nH]c1=O
- T/C [4]: 93 % of control
- T/C [5]: 99 % of control
- T/C [6]: 101 % of control
